From patent US9416125B2, “Substituted cycloalkenopyrazoles as BUB1 inhibitors for the treatment of cancer” (BAYER PHARMA AKTIENGESELLSCHAFT, priority 2012, dated 2016)

Key:
[1] = biological target: T1, catalytic domain of human Bub1 (amino acids 704-1085) (Homo sapiens, UniProt O43683); assay: Bub1 kinase assay (TR-FRET); format: biochemical; settings: 10 μM ATP, 1 μM peptide substrate, median, read-out: Biological Assay 1: Bub1 kinase assay median IC50
T1 construct: catalytic domain of human Bub1 (amino acids 704-1085); His6 (N); made in house; host or cells: Hi5 insect cells
Text: Bub1-inhibitory activities of compounds described in the present invention were quantified using a time-resolved fluorescence energy transfer (TR-FRET) kinase assay which measures phosphorylation of the synthetic peptide Biotin-Ahx-VLLPKKSFAEPG (C-terminus in amide form), purchased from e.g. Biosyntan (Berlin, Germany) by the (recombinant) catalytic domain of human Bub1 (amino acids 704-1085), expressed in Hi5 insect cells with an N-terminal His6-tag and purified by affinity- (Ni-NTA) and size exclusion chromatography.
In a typical assay 11 different concentrations of each compound (0.1 nM, 0.33 nM, 1.1 nM, 3.8 nM, 13 nM, 44 nM, 0.15 μM, 0.51 μM, 1.7 μM, 5.9 μM and 20 μM) were tested in duplicate within the same microtiter plate. To this end, 100-fold concentrated compound solutions (in DMSO) were previously prepared by serial dilution (1:3.4) of 2 mM stocks in a clear low volume 384-well source microtiter plate (Greiner Bio-One, Frickenhausen, Germany), from which 50 nL of compounds were transferred into a black low volume test microtiter plate from the same supplier. Subsequently, 2 μL of Bub1 (the final concentration of Bub1 was adjusted depending on the activity of the enzyme lot in order to be within the linear dynamic range of the assay: typically ˜200 ng/mL were used) in aqueous assay buffer [50 mM Tris/HCl pH 7.5, 10 mM magnesium chloride (MgCl2), 200 mM potassium chloride (KCl), 1.0 mM dithiothreitol (DTT), 0.1 mM sodium ortho-vanadate, 1% (v/v) glycerol, 0.01% (w/v) bovine serum albumine (BSA), 0.005% (v/v) Trition X-100 (Sigma), 1× Complete EDTA-free protease inhibitor mixture (Roche)] were added to the compounds in the test plate and the mixture was incubated for 15 min at 22° C. to allow pre-equilibration of the putative enzyme-inhibitor complexes before the start of the kinase reaction, which was initiated by the addition of 3 μL 1.67-fold concentrated solution (in assay buffer) of adenosine-tri-phosphate (ATP, 10 μM final concentration) and peptide substrate (1 μM final concentration). The resulting mixture (5 μL final volume) was incubated at 22° C. during 60 min, and the reaction was stopped by the addition of 5 μL of an aqueous EDTA-solution (50 mM EDTA, in 100 mM HEPES pH 7.5 and 0.2% (w/v) bovine serum albumin) which also contained the TR-FRET detection reagents (0.2 μM streptavidin-XL665 [Cisbio Bioassays, Codolet, France] and 1 nM anti-phosho-Serine antibody [Merck Millipore, cat. #35-001] and 0.4 nM LANCE EU-W1024 labeled anti-mouse IgG antibody [Perkin-Elmer, product no. AD0077, alternatively a Terbium-cryptate-labeled anti-mouse IgG antibody from Cisbio Bioassays can be used]). The stopped reaction mixture was further incubated 1 h at 22° C. in order to allow the formation of complexes between peptides and detection reagents. Subsequently, the amount of product was evaluated by measurement of the resonance energy transfer from the Eu-chelate-antibody complex recognizing the Phosphoserine residue to the streptavidin-XL665 bound to the biotin moiety of the peptide. To this end, the fluorescence emissions at 620 nm and 665 nm after excitation at 330-350 nm were measured in GTR-FRET plate reader, e.g. a Rubystar or Pherastar (both from BMG Labtechnologies, Offenburg, Germany) or a Viewlux (Perkin-Elmer) and the ratio of the emissions (665 nm/622 nm) was taken as indicator for the amount of phosphorylated substrate. The data were normalised using two sets of (typically 32-) control wells for high- (=enzyme reaction without inhibitor=0%=Minimum inhibition) and low- (=all assay components without enzyme=100%=Maximum inhibition) Bub1 activity. IC50 values were calculated by fitting the normalized inhibition data to a 4-parameter logistic equation (Minimum, Maximum, IC50, Hill; Y=Max+(Min−Max)/(1+(X/IC50)Hill)).

HeLa cell line = assay: Proliferation assay (crystal violet staining); format: cell-based; settings: Homo sapiens, 96 h, 4 days incubation, range 0.001-10 μM, median, read-out: Biological Assay 2: Proliferation assay (HeLa cell line) median IC50
Procedure: Cultivated tumor cells (cells were ordered from ATCC, except HeLa-MaTu and HeLa-MaTu-ADR, which were ordered from EPO-GmbH, Berlin) were plated at a density of 1000 to 5000 cells/well, depending on the growth rate of the respective cell line, in a 96-well multititer plate in 200 μL of their respective growth medium supplemented 10% fetal calf serum. After 24 h, the cells of one plate (zero-point plate) were stained with crystal violet (see below), while the medium of the other plates was replaced by fresh culture medium (200 μL), to which the test substances were added in various concentrations (0 μM, as well as in the range of 0.001-10 μM; the final concentration of the solvent DMSO was 0.5%). The cells were incubated for 4 days in the presence of test substances. Cell proliferation was determined by staining the cells with crystal violet: the cells were fixed by adding 20 μL/measuring point of an 11% glutaric aldehyde solution for 15 min at rt. After three washing cycles of the fixed cells with water, the plates were dried at rt. The cells were stained by adding 100 μL/measuring point of a 0.1% crystal violet solution (pH 3.0). After three washing cycles of the stained cells with water, the plates were dried at rt. The dye was dissolved by adding 100 μL/measuring point of a 10% acetic acid solution. Absorbtion was determined by photometry at a wavelength of 595 nm. The change of cell number, in percent, was calculated by normalization of the measured values to the aborbtion values of the zero-point plate (=0%) and the absorbtion of the untreated (0 μm) cells (=100%). The IC50 values were determined by means of a 4 parameter fit.

T1 sequence (O43683 704-1085): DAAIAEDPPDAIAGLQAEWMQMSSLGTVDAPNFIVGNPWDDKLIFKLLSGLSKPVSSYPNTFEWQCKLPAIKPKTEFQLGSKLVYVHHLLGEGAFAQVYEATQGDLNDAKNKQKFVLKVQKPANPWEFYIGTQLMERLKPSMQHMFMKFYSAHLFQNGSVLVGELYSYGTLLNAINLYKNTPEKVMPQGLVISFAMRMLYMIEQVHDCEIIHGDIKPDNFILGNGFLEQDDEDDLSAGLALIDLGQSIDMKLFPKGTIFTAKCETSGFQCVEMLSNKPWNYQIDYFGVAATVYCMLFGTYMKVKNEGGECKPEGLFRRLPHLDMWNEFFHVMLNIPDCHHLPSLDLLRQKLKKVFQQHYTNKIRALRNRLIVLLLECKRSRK

Row | Compound | IC50 [1] | IC50 (HeLa cell line)
1 | COc1ccc(Cn2nc(-c3ncc(O)c(Nc4ccncc4)n3)c3c2CCC3)cc1 [Example 2-2-3, 2-[1-(4-methoxy-benzyl)-1,4,5,6-tetrahydrocyclopenta [c]pyrazol-3-yl]-4-(pyridin-4-ylamino) pyrimidin-5-ol] | 100 nM | ≥ 10000 nM
2 | CCOc1cc(F)c(Cn2nc(-c3ncc(OCCN(C)C)c(Nc4ccncc4)n3)c3c2CCC3)c(F)c1 [Example 2-3-1, 5-[2-(dimethylamino)ethoxy]-2-[1-(4-ethoxy-2,6-difluorobenzyl)-1,4,5,6-tetrahydrocyclopenta[c]pyrazol-3-yl]-N-(pyridin-4-yl)pyrimidin-4-amine] | 9 nM | 1000 nM
3 | CCOc1cc(F)c(Cn2nc(-c3ncc(OCC4(CO)COC4)c(Nc4ccncc4)n3)c3c2CCC3)c(F)c1 [Example 2-3-2, {3-[({2-[1-(4-ethoxy-2,6-difluoro-benzyl)-1,4,5,6-tetrahydrocyclopenta [c]pyrazol-3-yl]-4-(pyridin-4-ylamino)pyrimidin-5-yl}oxy)methyl]oxetan-3-yl}methanol] | 6 nM | ≥ 10000 nM
4 | CCOc1cc(F)c(Cn2nc(-c3ncc(OCCN4CCCC4)c(Nc4ccncc4)n3)c3c2CCC3)c(F)c1 [Example 2-3-3, 2-[1-(4-ethoxy-2,6-difluoro-benzyl)-1,4,5,6-tetrahydrocyclopenta [c]pyrazol-3-yl]-N-(pyridin-4-yl)-5-[2-(pyrrolidin-1-yl)ethoxy] pyrimidin-4-amine] | 20 nM | 1000 nM
5 | CCOC(=O)c1cnccc1Nc1nc(-c2nn(Cc3ccccc3F)c3c2CCC3)ncc1OCC1(CO)COC1 [Example 2-3-4, ethyl 4-[(2-[1-(2-fluoro-benzyl)-1,4,5,6-tetrahydrocyclopenta [c]pyrazol-3-yl]-5-{[3-(hydroxymethyl)oxetan-3-yl]methoxy}pyrimidin-4-yl)amino] nicotinate] | 40 nM | ≥ 10000 nM
6 | N#Cc1cnccc1Nc1nc(-c2nn(Cc3ccccc3F)c3c2CCC3)ncc1OCC1(CO)COC1 [Example 2-3-5, 4-[(2-[1-(2-fluoro-benzyl)-1,4,5,6-tetrahydrocyclopenta [c]pyrazol-3-yl]-5-{[3-(hydroxymethyl)oxetan-3-yl]methoxy}pyrimidin-4-yl)amino] nicotinonitrile] | 40 nM | 4000 nM
7 | CS(=O)(=O)CCCOc1cnc(-c2nn(Cc3ccccc3F)c3c2CCC3)nc1Nc1ccncc1C(N)=O [Example 2-3-9, 4-({2-[1-(2-fluoro-benzyl)-1,4,5,6-tetrahydrocyclopenta [c]pyrazol-3-yl]-5-[3-(methyl-sulfonyl)propoxy]pyrimidin-4-yl}amino) nicotinamide] | 100 nM | ≥ 10000 nM
8 | CCOc1cc(F)c(Cn2nc(-c3ncc(O)c(N(CCN(C)C)c4ccncc4)n3)c3c2CCC3)c(F)c1 [Example 2-4-1, 4-{[2-(dimethylamino)ethyl](pyridin-4-yl)amino}-2-[1-(4-ethoxy-2,6-difluorobenzyl)-1,4,5,6-tetrahydrocyclopenta[c]pyrazol-3-yl]pyrimidin-5-ol] | 200 nM | ≥ 10000 nM
9 | CCOc1cc(F)c(Cn2nc(-c3ncc(O)c(N(CCN4CCCC4)c4ccncc4)n3)c3c2CCC3)c(F)c1 [Example 2-4-2, 2-[1-(4-ethoxy-2,6-difluoro-benzyl)-1,4,5,6-tetrahydrocyclopenta [c]pyrazol-3-yl]-4-{pyridin-4-yl[2-(pyrrolidin-1-yl)ethyl]amino} pyrimidin-5-ol] | 900 nM | ≥ 10000 nM
10 | COc1cnc(-c2nn(Cc3ccccc3F)c3c2CCC3)nc1Nc1ccncc1C(N)=O [Example 2-5-1, 4-({2-[1-(2-fluorobenzyl)-1,4,5,6-tetrahydrocyclopenta[c]pyrazol-3-yl]-5-methoxypyrimidin-4-yl}amino)nicotinamide] | 10 nM | ≥ 10000 nM
11 | CCOC(=O)c1cnccc1Nc1nc(-c2nn(Cc3ccccc3F)c3c2CCC3)ncc1O [Example 2-8-1, ethyl 4-({2-[1-(2-fluorobenzyl)-1,4,5,6-tetrahydrocyclopenta[c]pyrazol-3-yl]-5-hydroxypyrimidin-4-yl}amino)nicotinate] | 30 nM | ≥ 10000 nM
12 | NC(=O)c1cnccc1Nc1nc(-c2nn(Cc3ccccc3F)c3c2CCC3)ncc1OCCO [Example 2-10-1, 4-({2-[1-(2-fluorobenzyl)-1,4,5,6-tetrahydrocyclopenta[c]pyrazol-3-yl]-5-(2-hydroxyethoxyl)pyrimidin-4-yl}amino)nicotinamide] | 70 nM | 50000 nM
13 | NC(=O)c1cnccc1N(CCO)c1nc(-c2nn(Cc3ccccc3F)c3c2CCC3)ncc1OCCO [Example 2-10-2, 4-[{2-[1-(2-fluoro-benzyl)-1,4,5,6-tetrahydrocyclopenta [c]pyrazol-3-yl]-5-(2-hydroxy-ethoxy)pyrimidin-4-yl}(2-hydroxy-ethyl)amino] nicotinamide] | 2000 nM | ≥ 10000 nM
14 | N#Cc1cnccc1Nc1nc(-c2nn(Cc3ccccc3F)c3c2CCC3)ncc1OCCO [Example 2-11-1, 4-({2-[1-(2-fluorobenzyl)-1,4,5,6-tetrahydrocyclopenta[c]pyrazol-3-yl]-5-(2-hydroxyethoxyl)pyrimidin-4-yl}amino)nicotinonitrile] | 400 nM | ≥ 10000 nM
15 | CCOc1cc(F)c(Cn2nc(-c3ncc(OCCO)c(Nc4ccncc4)n3)c3c2CCC3)c(F)c1 [Example 2-11-2, 2-({2-[1-(4-ethoxy-2,6-difluoro-benzyl)-1,4,5,6-tetrahydrocyclopenta [c]pyrazol-3-yl]-4-(pyridin-4-ylamino)pyrimidin-5-yl}oxy) ethanol] | 4 nM | 4000 nM
16 | CS(=O)(=O)CCOc1cnc(-c2nn(Cc3ccccc3F)c3c2CCC3)nc1Nc1ccncc1C(N)=O [Example 2-13-1, 4-({2-[1-(2-fluorobenzyl)-1,4,5,6-tetrahydrocyclopenta[c]pyrazol-3-yl]-5-[2-(methylsulfonyl)ethoxy]pyrimidin-4-yl}amino)nicotinamide] | 30 nM | ≥ 10000 nM
